Data: patent US20220096515A1, “Methods and Formulations for Preventing Neurological or Psychiatric Disorders” (Huntington Medical Research Institutes, priority 2020, published 2022)

Tested on: Daxx
Assay: Daxx mRNA and protein levels in endothelial cells after prenatal treatment
Type: in vivo, mouse
Experimental: Primary culture of endothelial cells and endothelial cell staining: Embryonic brains were dissected under a stereo-microscope, after the NAD^+ treatment paradigm and the telencephalon was removed. Pial membranes were peeled off. Telencephalon without pial membranes from the periventricular region was pooled. Purity of endothelial cell cultures was established with endothelial cell markers and determined to be one hundred percent. Isolation and culture of endothelial cells were performed according to published methodology. Periventricular endothelial cells were prepared from CD1 (wild type), saline-treated Gabrb3^fl/fl, saline-treated Gabrb3^ECKO, and NAD^+-treated Gabrb3^ECKO embryos. Endothelial cells were labeled with anti-biotinylated isolectinB4 (1:100, Sigma), anti-GABA (1:400, Sigma), anti-DAXX (1:100, Santa Cruz Biotechnology) and anti-P2X4 (1:100, Abclonal) followed by secondary detection with AlexaFluor conjugates (Invitrogen). DAPI (Invitrogen) was used to label nuclei. Images were taken on an FSX100 microscope (Olympus). 1 million cells were examined for each immunohistochemistry condition.
Quantitative real-time PCR: RT was performed by using iScript Reverse Transcription Supermix kit (Bio-Rad). […] The relative gene expression and subsequent fold changes among different samples were determined according to published methodology. […]

NC(=O)c1ccc[n+]([C@@H]2O[C@H](COP(=O)([O-])OP(=O)(O)OC[C@H]3O[C@@H](n4cnc5c(N)ncnc54)[C@H](O)[C@@H]3O)[C@@H](O)[C@H]2O)c1 [NAD^+]
Daxx mRNA and DAXX protein levels: normalize DAXX levels
